Measurements reported in EP4737445A1, “NOVEL SATURATED HETEROCYCLE-SUBSTITUTED HETEROARYL-CARBONOHYDRAZONOYL DICYANIDE COMPOUND AND USE THEREOF” (Korea Institute of Science and Technology, priority 2023, dated 2025).

Legend:
CYP2D6 = biological target: T1, CYP2D6 (Homo sapiens, UniProt P10635); test: CYP isoenzyme activity inhibition in human liver microsomes, CYP2D6; type: in vitro ADME; conditions: 10 µM compound; human liver microsomes 0.25 mg/mL; relative to control without compound
T1 construct: human liver microsomes (0.25 mg/mL); from tissue; host or cells: human liver microsomes
T1 sequence (P10635 whole entry): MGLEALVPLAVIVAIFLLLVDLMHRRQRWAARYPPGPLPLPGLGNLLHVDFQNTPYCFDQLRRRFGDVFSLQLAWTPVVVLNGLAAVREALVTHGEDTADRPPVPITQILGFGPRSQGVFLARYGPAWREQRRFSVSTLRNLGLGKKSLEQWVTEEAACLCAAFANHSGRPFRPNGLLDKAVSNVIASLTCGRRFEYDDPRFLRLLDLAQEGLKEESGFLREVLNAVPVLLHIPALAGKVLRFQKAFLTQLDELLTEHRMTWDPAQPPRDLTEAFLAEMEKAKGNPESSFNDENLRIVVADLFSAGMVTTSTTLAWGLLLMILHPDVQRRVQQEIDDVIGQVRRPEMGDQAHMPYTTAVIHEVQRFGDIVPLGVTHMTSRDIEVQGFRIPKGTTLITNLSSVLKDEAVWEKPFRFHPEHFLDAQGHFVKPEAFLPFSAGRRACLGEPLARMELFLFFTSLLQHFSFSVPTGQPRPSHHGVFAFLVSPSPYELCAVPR
Procedure: (§1) The CYP isoenzyme activity inhibitory effect by the compounds prepared according to Examples 1 to 46 was confirmed. Specifically, human liver microsomes (0.25 mg/mL), 0.1 M phosphate buffer solution (pH 7.4), a substrate drug cocktail of five drug metabolizing enzymes (Phenacetin 50 µM, Diclofenac 10 µM, S-mephenytoin 100 µM, Dextromethorphan 5 µM, and Midazolam 2.5 µM), and the compounds were added at concentrations of 0 or 10 µM, respectively, and pre-incubated at 37°C for 5 minutes, and then NADPH generation system solution was added and incubated at 37°C for an additional 15 minutes. Thereafter, an acetonitrile solution containing an internal standard (Terfenadine) was added to terminate the reaction, and after centrifugation for 5 minutes (14,000 rpm, 4°C), the supernatant was injected into an LC-MS/MS system to simultaneously analyze the metabolites of the substrate drugs, thereby evaluating the drug metabolizing enzyme inhibitory activity.
(§2) The metabolites of each CYP isoenzyme marker drug generated through the reaction were analyzed using a Shimadzu Nexera XR system and TSQ vantage (Thermo). A Kinetex C18 (2.1 × 100 mm, 2.6 µm, particle size; Phenomenex, USA) was used as the HPLC column, and (A) distilled water containing 0.1% formic acid and (B) acetonitrile containing 0.1% formic acid were used as mobile phases, and a gradient program as shown in Table 6 below was applied.
(§3) The generated metabolites were quantified using MRM (Multiple Reaction Monitoring) quantitative mode, and Xcalibur (version 1.6.1) was used for data analysis. To show the CYP isoenzyme activity inhibitory effect of the novel compounds prepared according to the Examples of the disclosure, the % activity of CYP isoenzymes relative to the control group without compound addition is shown in Table 6 below. Additionally, to confirm the difference in effect according to substituents, Comparative Compounds 1 and 5, which are two compounds that share a similar parent nucleus structure with Compounds 1 to 46 of the disclosure while Cy is substituted with aromatic heteroaryl instead of saturated heterocyclyl, were selected as comparative compounds and their activities are shown together.

Tau-BiFC cells = test: Cell viability (stained nuclei count) in Tau-BiFC cells; type: cell-based; conditions: @10 µM; Tau-BiFC cell line; Forskolin-only group = 100%
Procedure, shortened: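 Tau-BiFC cells were co-treated with compound (1, 3, 10 µM for screening; 0.03–30 µM for IC50) and 30 µM Forskolin for 48 h. BiFC fluorescence was normalised to the Forskolin-only window for aggregation; viability came from Hoechst-stained nuclei counts relative to Forskolin-only (100%). IC50 was derived by nonlinear regression.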

CYP1A2 = biological target: T2, CYP1A2 (Homo sapiens, UniProt P05177); test: CYP isoenzyme activity inhibition in human liver microsomes, CYP1A2; type: in vitro ADME; conditions: 10 µM compound; human liver microsomes 0.25 mg/mL; relative to control without compound
T2 construct: human liver microsomes (0.25 mg/mL); from tissue; host or cells: human liver microsomes
T2 sequence (P05177 1-516): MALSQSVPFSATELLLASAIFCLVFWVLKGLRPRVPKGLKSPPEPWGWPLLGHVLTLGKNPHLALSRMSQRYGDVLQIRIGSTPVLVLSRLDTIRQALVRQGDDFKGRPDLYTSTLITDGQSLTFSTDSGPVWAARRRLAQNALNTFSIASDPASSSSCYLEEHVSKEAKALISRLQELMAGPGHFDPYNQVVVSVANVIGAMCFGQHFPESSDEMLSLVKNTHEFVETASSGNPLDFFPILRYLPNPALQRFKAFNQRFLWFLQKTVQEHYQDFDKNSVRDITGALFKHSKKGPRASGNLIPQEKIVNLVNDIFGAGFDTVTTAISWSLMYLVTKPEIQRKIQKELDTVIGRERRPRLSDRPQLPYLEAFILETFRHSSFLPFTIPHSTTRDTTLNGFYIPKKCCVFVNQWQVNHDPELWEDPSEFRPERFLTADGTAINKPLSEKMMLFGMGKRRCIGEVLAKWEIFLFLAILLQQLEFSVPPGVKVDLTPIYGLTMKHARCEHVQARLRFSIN
Procedure: as §1, §2, §3

SMILES: N#CC(C#N)=NNc1ccc2nc(N3CC4CCC(C3)O4)oc2c1 [Compound 26, (2-(8-oxa-3-azabicyclo[3.2.1]octan-3-yl)benzo[d]oxazol-6-yl)carbonohydrazonoyl dicyanide]
- CYP2D6 (% activity) (CYP2D6): 82.1 % activity
- Cell viability (% @10µM) (Tau-BiFC cells): 99%
- CYP1A2 (% activity) (CYP1A2): 79.1 % activity

SMILES: N#CC(C#N)=NNc1ccc2nc(N3CC[C@@H](F)C3)oc2c1 [Compound 41, (R)-(2-(3-fluoropyrrolidin-1-yl)benzo[d]oxazol-6-yl)carbonohydrazonoyl dicyanide]
- CYP2D6 (% activity) (CYP2D6): 86.8 % activity
- Cell viability (% @10µM) (Tau-BiFC cells): 100%
- CYP1A2 (% activity) (CYP1A2): 71.9 % activity

SMILES: CC1COCCN1c1nc2ccc(NN=C(C#N)C#N)cc2o1 (stereo not drawn) [Compound 16, (2-(3-methylmorpholino)benzo[d]oxazol-6-yl)carbonohydrazonoyl dicyanide]
- CYP2D6 (% activity) (CYP2D6): 92.1 % activity
- Cell viability (% @10µM) (Tau-BiFC cells): 100%
- CYP1A2 (% activity) (CYP1A2): 99.9 % activity

SMILES: Cn1c(N2C3CCC2COC3)nc2ccc(NN=C(C#N)C#N)cc21 [Compound 34, (2-(3-oxa-8-azabicyclo[3.2.1]octan-8-yl)-1-methyl-1H-benzo[d]imidazol-6-yl)carbonohydrazonoyl dicyanide]
- CYP2D6 (% activity) (CYP2D6): 92.4 % activity
- Cell viability (% @10µM) (Tau-BiFC cells): 100%
- CYP1A2 (% activity) (CYP1A2): 85.8 % activity

SMILES: CC1CN(c2nc3ccc(NN=C(C#N)C#N)cc3s2)CCO1 (stereo not drawn) [Compound 12, (2-(2-methylmorpholino)benzo[d]thiazol-6-yl)carbonohydrazonoyl dicyanide]
- CYP2D6 (% activity) (CYP2D6): 94.8 % activity
- Cell viability (% @10µM) (Tau-BiFC cells): 102%
- CYP1A2 (% activity) (CYP1A2): 74.9 % activity

SMILES: N#CC(C#N)=NNc1ccc2sc(N3CCOCC3)nc2c1 [Compound 1, (2-morpholinobenzo[d]thiazol-5-yl)carbonohydrazonoyl dicyanide]
- CYP2D6 (% activity) (CYP2D6): > 100 % activity
- Cell viability (% @10µM) (Tau-BiFC cells): 100%
- CYP1A2 (% activity) (CYP1A2): 80.2 % activity

SMILES: CCn1c(N2CCOCC2)nc2cc(NN=C(C#N)C#N)ccc21 [Compound 33, (1-ethyl-2-morpholino-1H-benzo[d]imidazol-5-yl)carbonohydrazonoyl dicyanide]
- CYP2D6 (% activity) (CYP2D6): 97.9 % activity
- Cell viability (% @10µM) (Tau-BiFC cells): 97%
- CYP1A2 (% activity) (CYP1A2): 75.5 % activity

SMILES: N#CC(C#N)=NNc1ccc2nc(N3C4CCC3COC4)oc2c1 [Compound 20, (2-(3-oxa-8-azabicyclo[3.2.1]octan-8-yl)benzo[d]oxazol-6-yl)carbonohydrazonoyl dicyanide]
- CYP2D6 (% activity) (CYP2D6): 57.5 % activity
- Cell viability (% @10µM) (Tau-BiFC cells): 96%
- CYP1A2 (% activity) (CYP1A2): 55.6 % activity

SMILES: N#CC(C#N)=NNc1ccc2nc(N3CCOCC3)oc2c1 [Compound 4, (2-morpholinobenzo[d]oxazol-6-yl)carbonohydrazonoyl dicyanide]
- CYP2D6 (% activity) (CYP2D6): > 100 % activity
- Cell viability (% @10µM) (Tau-BiFC cells): 100%
- CYP1A2 (% activity) (CYP1A2): 86.8 % activity

SMILES: CC1CN(C(=O)Nc2nc3ccc(NN=C(C#N)C#N)cc3s2)CC(C)O1 (stereo not drawn) [Compound 39, (2-(2,6-dimethylmorpholine-4-carboxamido)benzo[d]thiazol-6-yl)carbonohydrazonoyl dicyanide]
- CYP2D6 (% activity) (CYP2D6): 85.9 % activity
- Cell viability (% @10µM) (Tau-BiFC cells): 98%
- CYP1A2 (% activity) (CYP1A2): 84 % activity

SMILES: COC1CCN(c2nc3ccc(NN=C(C#N)C#N)cc3o2)CC1 [Compound 17, (2-(4-methoxypiperidin-1-yl)benzo[d]oxazol-6-yl)carbonohydrazonoyl dicyanide]
- CYP2D6 (% activity) (CYP2D6): 89.5 % activity
- Cell viability (% @10µM) (Tau-BiFC cells): 100%
- CYP1A2 (% activity) (CYP1A2): 83.2 % activity

SMILES: CC(=O)N1CCN(c2nc3ccc(NN=C(C#N)C#N)cc3s2)CC1 [Compound 30, (2-(4-acetylpiperazin-1-yl)benzo[d]thiazol-6-yl)carbonohydrazonoyl dicyanide]
- CYP2D6 (% activity) (CYP2D6): 88.9 % activity
- Cell viability (% @10µM) (Tau-BiFC cells): 99%
- CYP1A2 (% activity) (CYP1A2): 88.9 % activity

SMILES: CC1CN(c2nc3ccc(NN=C(C#N)C#N)cc3s2)CC(C)O1 (stereo not drawn) [Compound 10, (2-(2,6-dimethylmorpholino)benzo[d]thiazol-6-yl)carbonohydrazonoyl dicyanide]
- CYP2D6 (% activity) (CYP2D6): 93.8 % activity
- Cell viability (% @10µM) (Tau-BiFC cells): 109%
- CYP1A2 (% activity) (CYP1A2): 68.4 % activity

SMILES: CC1COCCN1c1nc2ccc(NN=C(C#N)C#N)cc2s1 (stereo not drawn) [Compound 13, (2-(3-methylmorpholino)benzo[d]thiazol-6-yl)carbonohydrazonoyl dicyanide]
- CYP2D6 (% activity) (CYP2D6): > 100 % activity
- Cell viability (% @10µM) (Tau-BiFC cells): 99%
- CYP1A2 (% activity) (CYP1A2): 83 % activity
